Experimental data taken from patent US20210290648A1, “Potentiation of B-Lactam Antibiotics and B-Lactam/B-Lactamase Inhibitor Combinations Against Multidrug and Extensively Drug-Resistant Pseudomonas Aeruginosa Using Non-Ribosomal Tobramycin-Cyclam Conjugates” (University of Manitoba, priority 2018, published 2021).

Tests used:
Type in all cases: cell-based, Pseudomonas aeruginosa
[1] = tested on: β-lactamase-harboring MDR P. aeruginosa clinical isolates; experiment: Triple combination susceptibility (β-lactam + avibactam + compound 2)
Source text: The diazabicyclooctane β-lactamase inhibitor, avibactam, is able to inhibit a wide range of serine β-lactamases (class A, C, and D) but not metallo-β-lactamases (class B) (50, 51).^50,51 However, the high concentration of avibactam required to neutralize the effects of β-lactamase enzymes in these phenotypes is indicative of concomitant permeability barriers in the isolates, such as reduced porin uptake. […] The results of this study are shown in (FIG. 6). All isolates were resistant to all three β-lactam antibiotics used for the study. […] As expected, the study with meropenem was slightly different from others.
(§1) Antimicrobial Susceptibility Assay. The in vitro antimicrobial activity of all compounds/antibiotics against a panel of bacteria was evaluated by microbroth dilution method in accordance with the Clinical and Laboratory Standards Institute (CLSI) guidelines. Overnight grown bacterial cultures were diluted in saline to achieve a 0.5 McFarland turbidity, followed by 1:50 dilution in Mueller-Hinton broth (MHB) for inoculation to a final concentration of approximately 5×10^5CFU/mL. The antimicrobial agents were 2-fold serially diluted in MHB in a 96-well plate and incubated at 37° C. with equal volumes of inoculum for 18 h. The lowest concentration that prevented the visible growth of bacteria was defined as the MIC for each antimicrobial agent. The broth with or without bacterial cells was used as positive or negative control, respectively.
(§2) Checkerboard Assay. Combination studies with different antibiotics were performed in 96-well plates as previously described (22). Briefly, the antibiotic of interest was serially diluted in MHB along the abscissa while the adjuvant (newly synthesized conjugates) was serially diluted in MHB along the ordinate. This creates a 10×7 matrix wherein each well consists of a combination of different antibiotic and adjuvant concentrations. Overnight grown bacterial cultures were diluted in saline to achieve a 0.5 McFarland turbidity, followed by 1:50 dilution in Mueller-Hinton broth (MHB) for inoculation to a final concentration of approximately 5×10^5CFU/mL. Equal volume of this bacterial culture was then added to each well and incubated at 37° C. for 18 h. After incubation, the plates were read on EMax® Plus microplate reader (Molecular Devices, Sunnyvale, Calif., USA) at 590 nm. MIC was recorded as wells with the lowest concentration of drugs with no bacterial growth. The fractional inhibitory concentration (FIC) for each antibiotic was calculated by dividing the MIC of the antibiotic in the presence of adjuvant by the MIC of the antibiotic alone. Similarly, the FIC of adjuvant was calculated by dividing the MIC of the adjuvant in the presence of antibiotic by the MIC of the adjuvant alone. FIC index is the sum of both FICs. FIC indices of <0.5 were deemed synergistic; 0.5-4, no interaction; and >4, antagonistic.

[2] = tested on: WT P. aeruginosa PAO1; experiment: Checkerboard combination study / MIC; conditions: for MIC: Pseudomonas aeruginosa, PAO1, 18 h, WT PAO1 (Table 2), read-out: MIC alone; for FICI in the presence of ≤10 μM of 1: antibiotic + compound 1; for MIC of Antibiotics in the presence of ≤10 μM of 1: antibiotic + compound 1 ≤10 μM; for FICI in the presence of ≤10 μM of 2: antibiotic + compound 2; for MIC of Antibiotics in the presence of ≤10 μM of 2: antibiotic + compound 2 ≤10 μM; for FICI in the presence of ≤10 μM of 3: antibiotic + compound 3; for MIC of Antibiotics in the presence of ≤10 μM of 3: antibiotic + compound 3 ≤10 μM
[3] = tested on: PA 100036; experiment: Checkerboard combination study / MIC
[4] = tested on: PA 101885; experiment: Checkerboard combination study / MIC
[5] = tested on: PA 259; experiment: Checkerboard combination study / MIC
[6] = tested on: PA 260; experiment: Checkerboard combination study / MIC
[7] = tested on: PA 262; experiment: Checkerboard combination study / MIC
[8] = tested on: PA 264; experiment: Checkerboard combination study / MIC
[9] = tested on: PA 101243; experiment: Checkerboard combination study / MIC; conditions: PA 101243
[10] = tested on: PA 114228; experiment: Checkerboard combination study / MIC
[11] = tested on: PAO200
Source text: (§3) PAO200 is a tnexA-rnexB-oprM deletion strain while PAO750 lacks five important RND pumps (McxAB-OprM, MexCD-OprJ, MexEF-OprN, Mex JK, and MexXY) and the outer membrane protein OpmH (46, 47). Some of these pumps are homologues of broad substrate specificities that extrude different classes of antimicrobial agents and confer resistance on P. aeruginosa (48).
as §1, §2

[12] = tested on: PAO750
Source text: as §3, §1, §2

[13] = tested on: MDR/XDR P. aeruginosa clinical isolates; experiment: MIC and checkerboard, panel of clinical isolates; conditions: antibiotic + compound 2 (8.7 μM); resistant P. aeruginosa isolates
[14] = MIC of antibiotic combined with compound 2

For `NC(=O)[C@@H]1CC[C@@H]2CN1C(=O)N2OS(=O)(=O)O` [Avibactam], the “concentration that completely reverses resistance to ceftazidime and aztreonam” value ([1]; 16-64 μM, not meropenem) was 4 to 16 µg/mL, the “isolates reaching aztreonam susceptibility breakpoint (≤8 μg/ml)” value ([1]; aztreonam + single adjuvant 8 μM) was “three out of five” and the “isolates reaching ceftazidime susceptibility breakpoint (≤8 μg/ml)” value ([1]; ceftazidime + single adjuvant 8 μM) was “four out of five”. For the same compound, the “isolates reaching meropenem susceptibility level” value ([1]; meropenem + single adjuvant 8 μM) was “one of five” and the potentiation of ceftazidime ([1]; single adjuvant at 8 μM, five isolates) was 4-16 fold.

`CCN1CCN(C(=O)N[C@@H](C(=O)N[C@@H]2C(=O)N3[C@@H]2SC(C)(C)[C@@H]3C(=O)O)c2ccccc2)C(=O)C1=O` [Piperacillin] was tested, and the “MIC of antibiotic + Compound 2 in PAO1” value ([2]; + compound 2 ≤8.7 μM, PAO1) was 2 µg/mL, the “fold change of MIC + Compound 2 in PAO1” value ([2]; + compound 2 ≤8.7 μM, PAO1) was 4 and the MIC ([2]; antibiotic alone) was 8 µg/mL. For the same compound, the “FICI in the presence of ≤10 μM of 1” value ([2]; WT PAO1) was 0.26, the “MIC of Antibiotics in the presence of ≤10 μM of 1” value (shortened to “MIC of Antibiotics … of 1”) ([2]; WT PAO1) was 2 µg/mL and the “FICI in the presence of ≤10 μM of 2” value ([2]; WT PAO1) was 0.25. For the same compound, the “MIC of Antibiotics in the presence of ≤10 μM of 2” value (shortened to “MIC of Antibiotics … of 2”) ([2]; WT PAO1) was 2 µg/mL, the “FICI in the presence of ≤10 μM of 3” value ([2]; WT PAO1) was 0.25 and the “MIC of Antibiotics in the presence of ≤10 μM of 3” value (shortened to “MIC of Antibiotics … of 3”) ([2]; WT PAO1) was 2 µg/mL. For the same compound, the “MIC of antibiotic alone in PAO1” value ([2]; antibiotic alone, PAO1 wild-type (Table 4)) was 8 µg/mL, the “MICCombination (antibiotic)” value [3, 14] was 64 µg/mL and the FICI ([3]; antibiotic + compound 2) was less than 1.06. The MICAntibiotic ([3]; antibiotic alone) was 64 µg/mL, the FICAntibiotic ([3]; with compound 2) was 1.000 and the “MICCombination (antibiotic)” value [4, 14] was 4 µg/mL. It also gave an FICI ([4]; antibiotic + compound 2) of less than 0.31, an MICAntibiotic ([4]; antibiotic alone) of 16 µg/mL and an FICAntibiotic ([4]; with compound 2) of 0.250. The “MICCombination (antibiotic)” value [5, 14] was 256 µg/mL, the FICI ([5]; antibiotic + compound 2) was less than 0.50 and the MICAntibiotic ([5]; antibiotic alone) was 512 µg/mL. The FICAntibiotic ([5]; with compound 2) was 0.500, the “MICCombination (antibiotic)” value [6, 14] was 512 µg/mL and the FICI ([6]; antibiotic + compound 2) was less than 1.06. The MICAntibiotic ([6]; antibiotic alone) was 512 µg/mL, the FICAntibiotic ([6]; with compound 2) was 1.000 and the “MICCombination (antibiotic)” value [7, 14] was 512 µg/mL. The FICI ([7]; antibiotic + compound 2) was less than 0.52, the MICAntibiotic ([7]; antibiotic alone) was 1024 µg/mL and the FICAntibiotic ([7]; with compound 2) was 0.500. The “MICCombination (antibiotic)” value [8, 14] was 1024 µg/mL, the FICI ([8]; antibiotic + compound 2) was less than 0.52 and the MICAntibiotic ([8]; antibiotic alone) was 2048 µg/mL. For the same compound, the FICAntibiotic ([8]; with compound 2) was 0.500, the “MICCombination (antibiotic)” value [9, 14] was 128 µg/mL and the FICI ([9]; antibiotic + compound 2) was less than 1.06. The MICAntibiotic ([9]; antibiotic alone) was 128 µg/mL, the FICAntibiotic ([9]; with compound 2) was 1.000 and the “MICCombination (antibiotic)” value [10, 14] was 8 µg/mL. For the same compound, the FICI ([10]; antibiotic + compound 2) was less than 0.50, the MICAntibiotic ([10]; antibiotic alone) was 16 µg/mL and the FICAntibiotic ([10]; with compound 2) was 0.500. For the same compound, the “MIC of antibiotic + Compound 2 in PAO200” value ([11]; + compound 2 ≤8.7 μM, PAO200) was 1 (1) μg/ml, the “fold change of MIC + Compound 2 in PAO200” value ([11]; + compound 2 ≤8.7 μM, PAO200) was 1 (1) and the “MIC of antibiotic alone in PAO200” value ([11]; antibiotic alone, PAO200 efflux-deficient) was 1 µg/mL. For the same compound, the “MIC of antibiotic + Compound 2 in PAO750” value ([12]; + compound 2 ≤8.7 μM, PAO750) was 0.5 µg/mL, the “fold change of MIC + Compound 2 in PAO750” value ([12]; + compound 2 ≤8.7 μM, PAO750) was 4 and the “MIC of antibiotic alone in PAO750” value ([12]; antibiotic alone, PAO750 efflux-deficient) was 2 µg/mL. For the same compound, the “resistant isolates reaching CLSI clinical breakpoint” value [13] was “zero out of six”.

In the case of `C[C@H]1c2cccc(O)c2C(=O)C2=C(O)[C@]3(O)C(=O)C(C(N)=O)=C(O)[C@@H](N(C)C)[C@@H]3[C@@H](O)[C@@H]21` [Doxycycline], the MIC ([2]; antibiotic alone) is reported as 8 µg/mL, the “FICI in the presence of ≤10 μM of 1” value ([2]; WT PAO1) is reported as 0.50 and the “MIC of Antibiotics … of 1” value ([2]; WT PAO1) is reported as 4 µg/mL. For the same compound, the “FICI in the presence of ≤10 μM of 2” value ([2]; WT PAO1) was 0.13, the “MIC of Antibiotics … of 2” value ([2]; WT PAO1) was 1 µg/mL and the “FICI in the presence of ≤10 μM of 3” value ([2]; WT PAO1) was 0.08. The “MIC of Antibiotics … of 3” value ([2]; WT PAO1) was 0.5 µg/mL.

`CO[C@H]1/C=C/O[C@@]2(C)Oc3c(C)c(O)c4c(O)c(c(/C=N/N5CCN(C)CC5)c(O)c4c3C2=O)NC(=O)/C(C)=C\C=C\[C@H](C)[C@H](O)[C@@H](C)[C@@H](O)[C@@H](C)[C@H](OC(C)=O)[C@@H]1C` [Rifampicin] was tested, and the MIC ([2]; antibiotic alone) was 16 µg/mL, the “FICI in the presence of ≤10 μM of 1” value ([2]; WT PAO1) was 0.13 and the “MIC of Antibiotics … of 1” value ([2]; WT PAO1) was 2 µg/mL. The “FICI in the presence of ≤10 μM of 2” value ([2]; WT PAO1) was 0.13, the “MIC of Antibiotics … of 2” value ([2]; WT PAO1) was 2 µg/mL and the “FICI in the presence of ≤10 μM of 3” value ([2]; WT PAO1) was 0.25. For the same compound, the “MIC of Antibiotics … of 3” value ([2]; WT PAO1) was 4 µg/mL and the “FICI with compounds 1-3” value ([2]; antibiotic + compounds 1-3 at ≤10 μM (≤16 μg/mL), WT PAO1) was 0.13-0.25.
